This is an account of results in patent US7704514B2 (priority 2003, dated 2010).

No end group written: not given here.

In experiment [1] the test system is HCV-peptide specific IFN-γ production by CD4+ and CD8+ T cells. The format is in vivo, HLA-A*0201 transgenic mice (HHD.1). As to conditions: HHD.1 mice; co-injection of the five HCV-derived peptides (20 μg each) with KLK 10 nmol/o-d(IC)13 0.4 nmol s.c. days 0, 14, 28; day 35. As to the method: Experimental setup (5 mice/group): • 1. HCV peptides • 2. HCV peptides+KLK+o-d(IC)13
On days 0, 14 and 28 HHD.1 mice were injected s.c. into both hind footpads with a total volume of 100 μl/mouse (50 μl/footpad) containing the above listed compounds. At day 35 (7 days after last vaccination) CD4^+ as well as CD8^+ T cells were isolated by magnetic separation (MACS, Miltenyi) from single cell suspensions of spleen cells. T cells were incubated with medium (background control) or were restimulated with irradiated spleen cells from naïve HHD.1 mice as APC in the presence of either the different peptides used for vaccination or the irrelevant peptide p1274. After overnight incubation, the IFN-γ production was analyzed using an ELIspot assay.

The subject of experiment [2] is peptide-specific IFN-γ producing cells. Set-up: species or system C57B1/6 mice. Conditions: mouse, in vivo, sc.
The test system of experiment [3] is HBsAg-specific IFN-γ and IL-4 production. The experiment is classed as in vivo, C57BL/6 mice. As to conditions: C57BL/6, s.c. flank day 0 and 56; co-injected with HBsAg 5 μg/mouse; Alum, pR and KLK: after boost. On the procedure:
Experimental setup (5 mice/group/timepoint): • 1. HBsAg • 2. HBsAg+Alum • 3. HBsAg+I-ODN 2 • 4. HBsAg+I-ODN 2b • 5. HBsAg+o-d(IC)13 • 6. HBsAg+pR • 7. HBsAg+KLK • 8. HBsAg+pR+I-ODN 2 • 9. HBsAg+pR+I-ODN 2b • 10. HBsAg+pR+o-d(IC)13 • 11. HBsAg+KLK+I-ODN 2 • 12. HBsAg+KLK+I-ODN 2b • 13. HBsAg+KLK+o-d(IC)13
On day 0 and day 56 mice were injected subcutaneously into the right flank with a total volume of 100 μl/mouse containing the above mentioned compounds. The analysis of the immune response was performed at day 7, day 21 and day 50 after first and second injection, respectively. Spleen cells of five mice per group per time point were restimulated ex vivo with 10 μg/ml HBsAg and ELIspot assays were performed in order to analyse the HBsAg-specific IFN-γ (type 1 immune response) as well as IL-4 (type 2 immune response) production.

In experiment [4] the test system is Influenza vaccine (Fluvirin)-specific IgG1 and IgG2b antibodies. Set-up: species or system C57BL/6 mice. Conditions: mouse, in vivo, sc.
For another experiment, the system named is human neutrophils. Conditions: cited from earlier work.
The test system of another experiment is Staphylococcus aureus. Conditions: literature (Nakajima 1997; Cho 1999); cited from earlier work.

On to DLMGYIPAV [p87], for which, in experiment [1], the “IFN-γ produced by CD4+ T cells against the peptide (ELIspot)” value (“IFN-γ produced by CD4+ T cells” for short) is “high amounts” and the “IFN-γ production by CD8+ T cells against the peptide (ELIspot)” value is recorded as “strong”.
Consider GYKVLVLNPSVAAT [p84], for which, in experiment [1], the “IFN-γ produced by CD4+ T cells” value is “high amounts”.
With VTILNLALL [p1664], the “peptide-specific IFN-γ spots of spleen cells after restimulation with the respective peptide (ELIspot)” value (“peptide-specific IFN-γ spots” below) in experiment [2] was “specifically release IFN-γ”.
Consider IASNENMETM [p1574, reference compound], for which, in experiment [2], the “peptide-specific IFN-γ spots” value is recorded as “do not show any specific spots”.
Take “Poly-L-Arginine [pR, reference compound]”: the “HBsAg-specific IL-4 production (type 2 immune response) compared to injection of HBsAg alone, spleen cell ELIspot” value in experiment [3] is reported as “Slightly increased”. Further, in experiment [4], the “Influenza vaccine-specific IgG2b (humoral type 1 response), serum ELISA” value is reported as “no specific IgG2b response is detectable”.
In the case of KLKLLLLLKLK-NH2, the “production of the superoxide anion (O2−) by human neutrophils via cell surface calreticulin” value in the experiment on human neutrophils is given as “activated to produce the superoxide anion”. In addition, in the experiment on Staphylococcus aureus, the “chemotherapeutic activity in Staphylococcus aureus-infected mice” value is on record as “significant chemotherapeutic activity”.
On to SSIAAQDAL [p1600], for which the “peptide-specific IFN-γ spots” value in experiment [2] is on record as “do not show any specific spots”.
On to CINGVCWTV [p89], for which, in experiment [1], the “IFN-γ produced by CD4+ T cells” value is recorded as “high amounts” and the “IFN-γ production by CD8+ T cells against the peptide (ELIspot)” value is on record as “strong”.
Take HMWNFISGIQYLAGLSTLPGNPA [p1426]: the “IFN-γ produced by CD4+ T cells” value in experiment [1] is “high amounts”.
On to TMLYNKMEF [p1569], for which the “peptide-specific IFN-γ spots” value in experiment [2] is reported as “specifically release IFN-γ”.
Turning to KLKLLLLLKLK-OH, the “HBsAg-specific IL-4 production (type 2 immune response) compared to injection of HBsAg alone, spleen cell ELIspot” value in experiment [3] is on record as “Slightly increased”. In addition, in experiment [4], the “Influenza vaccine-specific IgG1 (type 2 response), serum ELISA” value is given as “induces the production of Influenza vaccine-specific IgG1” and the “Influenza vaccine-specific IgG2b (humoral type 1 response), serum ELISA” value is recorded as “no specific IgG2b response is detectable”.
